Assay results: patent US20030008012A1, “Composition for rectal delivery of an oxazolidinone antibacterial drug” (priority 2001, published 2003)

Assay: Linezolid concentration in blood plasma of beagle dogs after rectal administration of one suppository
Type: in vivo
Conditions: dog, other: rectal
Description: One 20 mg linezolid suppository prepared as above was rectally administered to each of four beagle dogs, and the concentration of linezolid in blood plasma of the dogs was determined at different times after administration, as presented in Table 2.
One 600 mg linezolid suppository prepared as above was rectally administered to each of four beagle dogs and the concentration of linezolid in blood plasma of the dogs was determined at different times after administration, as presented in Table 3.

[1] = 20 mg, Example 2 solution suppository, 20 mg linezolid, Dog 1 (15.2 kg)
[2] = 20 mg, Example 2 solution suppository, 20 mg linezolid, Dog 2 (13.7 kg)
[3] = 20 mg, Example 2 solution suppository, 20 mg linezolid, Dog 3 (10.5 kg)
[4] = 20 mg, Example 2 solution suppository, 20 mg linezolid, Dog 4 (12.2 kg)
[5] = 600 mg, Example 5 particulate dispersion suppository, 600 mg linezolid, Dog 1 (15.0 kg)
[6] = 600 mg, Example 5 particulate dispersion suppository, 600 mg linezolid, Dog 2 (13.4 g)
[7] = 600 mg, Example 5 particulate dispersion suppository, 600 mg linezolid, Dog 3 (10.1 kg)
[8] = 600 mg, Example 5 particulate dispersion suppository, 600 mg linezolid, Dog 4 (12.5 kg)

With `CC(=O)NC[C@H]1CN(c2ccc(N3CCOCC3)c(F)c2)C(=O)O1` [Linezolid, (S)-N-[[3-[3-fluoro-4-(4-morpholinyl)phenyl]-2-oxo-5-oxazolidinyl]methyl]acetamide] the concentration at 0.25 h [1] was 47.6 ng/mL, the concentration at 0.5 h [1] was 132 ng/mL and the concentration at 0.75 h [1] was 168 ng/mL. For the same compound, the concentration at 1 h [1] was 209 ng/mL, the concentration at 1.5 h [1] was 267 ng/mL and the concentration at 2 h [1] was 354 ng/mL. The concentration at 2.5 h [1] was 417 ng/mL, the concentration at 3 h [1] was 364 ng/mL and the concentration at 0.25 h [2] was 54.6 ng/mL. It also gave a concentration at 0.5 h [2] of 136 ng/mL, a concentration at 0.75 h [2] of 189 ng/mL and a concentration at 1 h [2] of 197 ng/mL. For the same compound, the concentration at 1.5 h [2] was 179 ng/mL, the concentration at 2 h [2] was 238 ng/mL and the concentration at 2.5 h [2] was 171 ng/mL. It also gave a concentration at 3 h [2] of 146 ng/mL, a concentration at 0.25 h [3] of 134 ng/mL and a concentration at 0.5 h [3] of 305 ng/mL. It also gave a concentration at 0.75 h [3] of 340 ng/mL, a concentration at 1 h [3] of 388 ng/mL and a concentration at 1.5 h [3] of 423 ng/mL. The concentration at 2 h [3] was 351 ng/mL, the concentration at 2.5 h [3] was 331 ng/mL and the concentration at 3 h [3] was 317 ng/mL. For the same compound, the concentration at 0.25 h [4] was 80.7 ng/mL, the concentration at 0.5 h [4] was 204 ng/mL and the concentration at 0.75 h [4] was 291 ng/mL. The concentration at 1 h [4] was 394 ng/mL, the concentration at 1.5 h [4] was 532 ng/mL and the concentration at 2 h [4] was 548 ng/mL. The concentration at 2.5 h [4] was 550 ng/mL, the concentration at 3 h [4] was 556 ng/mL and the concentration at 0.25 h [5] was 1110 ng/mL. The concentration at 0.5 h [5] was 2250 ng/mL, the concentration at 0.75 h [5] was 3840 ng/mL and the concentration at 1 h [5] was 5010 ng/mL. It also gave a concentration at 1.5 h [5] of 6260 ng/mL, a concentration at 2 h [5] of 7230 ng/mL and a concentration at 2.5 h [5] of 7980 ng/mL. It also gave a concentration at 3 h [5] of 8480 ng/mL, a concentration at 0.25 h [6] of 770 ng/mL and a concentration at 0.5 h [6] of 1240 ng/mL. The concentration at 0.75 h [6] was 1940 ng/mL, the concentration at 1 h [6] was 2610 ng/mL and the concentration at 1.5 h [6] was 3490 ng/mL. It also gave a concentration at 2 h [6] of 3570 ng/mL, a concentration at 2.5 h [6] of 5010 ng/mL and a concentration at 3 h [6] of 4730 ng/mL. It also gave a concentration at 0.25 h [7] of 444 ng/mL, a concentration at 0.5 h [7] of 1110 ng/mL and a concentration at 0.75 h [7] of 1680 ng/mL. For the same compound, the concentration at 1 h [7] was 2540 ng/mL, the concentration at 1.5 h [7] was 3460 ng/mL and the concentration at 2 h [7] was 4840 ng/mL. The concentration at 2.5 h [7] was 5510 ng/mL, the concentration at 3 h [7] was 6570 ng/mL and the concentration at 0.25 h [8] was 1100 ng/mL. The concentration at 0.5 h [8] was 1720 ng/mL, the concentration at 0.75 h [8] was 1930 ng/mL and the concentration at 1 h [8] was 2640 ng/mL. For the same compound, the concentration at 1.5 h [8] was 4260 ng/mL, the concentration at 2 h [8] was 4810 ng/mL and the concentration at 2.5 h [8] was 6060 ng/mL. The concentration at 3 h [8] was 7480 ng/mL.
